Here are results for 21 compounds from patent US20230192686A1, “1H-PYRROLO[2,3-B]PYRIDINES AND PREPARATION AND USES THEREOF” (BioSplice Therapeutics, Inc., priority 2021, published 2023).

What is called EC50 is the concentration that produces a half-maximal response.

The target in this assay is recombinant DYRK1A kinase (Homo sapiens, UniProt Q13627). Description: DYRK1A kinase assay (Ser/Thr 18 peptide Z-lyte FRET). Type of assay: biochemical. Conditions: DYRK1A kinase activity; 15 μM ATP, 4 μM Ser/Thr peptide 18, one hour at room temperature. The essentials:
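Recombinant DYRK1A at 0.25 μg/mL was incubated 1 h at room temperature with 15 μM ATP, 4 μM Ser/Thr 18 peptide and compound, in duplicate, 11-point series from 10 μM. Phosphorylation was read by Z-lyte FRET after 1 h protease development, as the coumarin/fluorescein emission ratio converted to % phosphorylation. IC50 by non-linear regression.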
Regarding `Cc1nc2c(F)cc(-c3c[nH]c4ncc(C(=O)N5CCN(C)CC5)cc34)cc2n1C(C)C` [Compound 493, (3-(4-Fluoro-1-isopropyl-2-methyl-1H-benzo[d]imidazol-6-yl)-1H-pyrrolo[2,3-b]pyridin-5-yl)(4-methylpiperazin-1-yl)methanone], the concentration giving a half-maximal response (EC50) is 7 nM.
For `CN1CCN(C(=O)c2cnc3[nH]cc(-c4ccn5ncc(-c6cnn(C)c6)c5c4)c3c2)CC1` [Compound 502, (3-(3-(1-Methyl-1H-pyrazol-4-yl)pyrazolo[1,5-a]pyridin-5-yl)-1H-pyrrolo[2,3-b]pyridin-5-yl)(4-methylpiperazin-1-yl)methanone] the value was 16 nM; for `CN1CCN(C(=O)c2cnc3[nH]cc(-c4ccc5c(c4)OCCNC5=O)c3c2)CC1` [Compound 521, 8-(5-(4-Methylpiperazine-1-carbonyl)-1H-pyrrolo[2,3-b]pyridin-3-yl)-3,4-dihydrobenzo[f][1,4]oxazepin-5(2H)-one], 9 nM; for `Cc1nc2c(F)cc(-c3c[nH]c4ncc(C(=O)N5C6CCC5CN(C)C6)cc34)cc2n1C(C)C` [Compound 535, (3-(4-Fluoro-1-isopropyl-2-methyl-1H-benzo[d]imidazol-6-yl)-1H-pyrrolo[2,3-b]pyridin-5-yl)(3-methyl-3,8-diazabicyclo[3.2.1]octan-8-yl)methanone], 2 nM.
For `Cc1cn2c(n1)CN(C(=O)c1cnc3[nH]cc(-c4cc5n(c4)CCNC5=O)c3c1)CC2` [Compound 573, 7-(5-(2-Methyl-5,6,7,8-tetrahydroimidazo[1,2-a]pyrazine-7-carbonyl)-1H-pyrrolo[2,3-b]pyridin-3-yl)-3,4-dihydropyrrolo[1,2-a]pyrazin-1(2H)-one] the value was 10 nM.
The result for `Cc1cn2c(n1)CN(C(=O)c1cnc3[nH]cc(-c4cc(F)c5nc(C)n(C(C)C)c5c4)c3c1)CC2` [Compound 577, (3-(4-Fluoro-1-isopropyl-2-methyl-1H-benzo[d]imidazol-6-yl)-1H-pyrrolo[2,3-b]pyridin-5-yl)(2-methyl-5,6-dihydroimidazo[1,2-a]pyrazin-7(8H)-yl)methanone] reads 3 nM; that for `CN1CCC(C(=O)Nc2cnc3[nH]cc(-c4ccc5ncccc5c4)c3c2)CC1` [Compound 648, 1-Methyl-N-(3-(quinolin-6-yl)-1H-pyrrolo[2,3-b]pyridin-5-yl) piperidine-4-carboxamide], 2 nM.
Take `Cc1nc2c(F)cc(-c3c[nH]c4ncc(C(=O)Nc5cnn(C6CCNCC6)c5)cc34)cc2n1C(C)C` [Compound 661, 3-(4-Fluoro-1-isopropyl-2-methyl-1H-benzo[d]imidazol-6-yl)-N-(1-(piperidin-4-yl)-1H-pyrazol-4-yl)-1H-pyrrolo[2,3-b]pyridine-5-carboxamide]: the EC50 was 2 nM.
As for `Cc1nc2c(F)cc(-c3c[nH]c4ncc(C(=O)Nc5cnn(C6CCN(C)CC6)c5)cc34)cc2n1C(C)C` [Compound 703, 3-(4-Fluoro-1-isopropyl-2-methyl-1H-benzo[d]imidazol-6-yl)-N-(1-(1-methylpiperidin-4-yl)-1H-pyrazol-4-yl)-1H-pyrrolo[2,3-b]pyridine-5-carboxamide], the EC50 is 3 nM.
For `O=C(Nc1cncc(F)c1)c1cnc2[nH]cc(-c3ccc4c(c3)C3(CCNCC3)CC4=O)c2c1` [Compound 764, N-(5-fluoropyridin-3-yl)-3-(3-oxo-2,3-dihydrospiro[indene-1,4′-piperidin]-6-yl)-1H-pyrrolo[2,3-b]pyridine-5-carboxamide] the value was 22 nM; for `Cc1nc2c(F)cc(-c3c[nH]c4ncc(C(=O)Nc5ccc(N6CCN(C)CC6)nc5)cc34)cc2n1C(C)C` [Compound 787, 3-(4-Fluoro-1-isopropyl-2-methyl-1H-benzo[d]imidazol-6-yl)-N-(6-(4-methylpiperazin-1-yl)pyridin-3-yl)-1H-pyrrolo[2,3-b]pyridine-5-carboxamide], 3 nM.
The result for `CN1CCN(c2ccc(NC(=O)c3cnc4[nH]cc(-c5ccn6ncnc6c5)c4c3)cn2)CC1` [Compound 792, 3-([1,2,4]Triazolo[1,5-a]pyridin-7-yl)-N-(6-(4-methylpiperazin-1-yl)pyridin-3-yl)-1H-pyrrolo[2,3-b]pyridine-5-carboxamide] reads 10 nM.
For `CN1CCN(c2ccc(NC(=O)c3cnc4[nH]cc(-c5ccn6ncc(C(=O)N7CCCCC7)c6c5)c4c3)cn2)CC1` [Compound 802, N-(6-(4-Methylpiperazin-1-yl)pyridin-3-yl)-3-(3-(piperidine-1-carbonyl)pyrazolo[1,5-a]pyridin-5-yl)-1H-pyrrolo[2,3-b]pyridine-5-carboxamide] the value was 7 nM.
With `CN1CCN(c2ccc(NC(=O)c3cnc4[nH]cc(-c5ccc6c(c5)C(C)(C)CNC6=O)c4c3)cn2)CC1` [Compound 813, 3-(4,4-Dimethyl-1-oxo-1,2,3,4-tetrahydroisoquinolin-6-yl)-N-(6-(4-methylpiperazin-1-yl)pyridin-3-yl)-1H-pyrrolo[2,3-b]pyridine-5-carboxamide], the concentration giving a half-maximal response (EC50) came out at 3 nM.
On to `Cc1nc2c(F)cc(-c3c[nH]c4ncc(NC(=O)c5ccnc(N6CCNCC6)c5)cc34)cc2n1C(C)C` [Compound 829, N-(3-(4-Fluoro-1-isopropyl-2-methyl-1H-benzo[d]imidazol-6-yl)-1H-pyrrolo[2,3-b]pyridin-5-yl)-2-(piperazin-1-yl)isonicotinamide], for which the EC50 came to 2 nM.
For the compound `Cc1nc2c(F)cc(-c3c[nH]c4ncc(Nc5ccnc(N6CCN(C)CC6)c5)cc34)cc2n1C(C)C` [Compound 871, 3-(4-Fluoro-1-isopropyl-2-methyl-1H-benzo[d]imidazol-6-yl)-N-(2-(4-methylpiperazin-1-yl)pyridin-4-yl)-1H-pyrrolo[2,3-b]pyridin-5-amine], the EC50 was determined as 2 nM.
For `Cc1nc2c(F)cc(-c3c[nH]c4ncc(-c5ccccc5)cc34)cc2n1C(C)C` [Compound 913, 4-Fluoro-1-isopropyl-2-methyl-6-(5-phenyl-1H-pyrrolo[2,3-b]pyridin-3-yl)-1H-benzo[d]imidazole], the 50% effective concentration (EC50) was determined as 4 nM.
In the case of `Cc1ccccc1-c1cnc2[nH]cc(-c3cc(F)c4nc(C)n(C(C)C)c4c3)c2c1` [Compound 955, 4-Fluoro-1-isopropyl-2-methyl-6-(5-(o-tolyl)-1H-pyrrolo[2,3-b]pyridin-3-yl)-1H-benzo[d]imidazole], the concentration for a half-maximal effect (EC50) amounted to 20 nM.
The result for `Cc1nc2c(F)cc(-c3c[nH]c4ncc(-c5cc(F)c(F)c(N6CCNCC6)c5)cc34)cc2n1C(C)C` [Compound 997, 6-(5-(3,4-Difluoro-5-(piperazin-1-yl)phenyl)-1H-pyrrolo[2,3-b]pyridin-3-yl)-4-fluoro-1-isopropyl-2-methyl-1H-benzo[d]imidazole] reads 6 nM; that for `Cn1cc(-c2cnc3[nH]cc(-c4ccc5nccn5c4)c3c2)cn1` [Compound 1036, 6-(5-(1-Methyl-1H-pyrazol-4-yl)-1H-pyrrolo[2,3-b]pyridin-3-yl) imidazo[1,2-a]pyridine], 2 nM; that for `CN1CCN(C(=O)c2cnn3ccc(-c4c[nH]c5ncc(-c6cnn(C)c6)cc45)cc23)CC1` [Compound 1055, (5-(5-(1-Methyl-1H-pyrazol-4-yl)-1H-pyrrolo[2,3-b]pyridin-3-yl)pyrazolo[1,5-a]pyridin-3-yl)(4-methylpiperazin-1-yl)methanone], 9 nM.
